Data published in patent US20060094719A1, “Tetralin histamine-3 receptor antagonists” (Pfizer Inc, priority 2004, published 2006).

What was measured:
[1] = target: T1, rat histamine H3 receptors (Rattus norvegicus, UniProt Q9QYN8); assay: Rat H3 binding, 3H-N-methylhistamine displacement in frontal brain membranes; details: radioligand 1 nM 3H-N-methylhistamine, 1-hour incubation
T1 construct: Frozen rat frontal brain or frozen human post-mortem frontal brain is homogenized; from tissue; host or cells: rat frontal brain membranes
Protocol: The in vitro affinity of the compounds in the present invention at the rat or human histamine H3 receptors can be determined according to the following procedure. Frozen rat frontal brain or frozen human post-mortem frontal brain is homogenized in 20 volumes of cold 50 mM Tris.HCl containing 2 mM MgCl2 (pH to 7.4 at 4° C.). The homogenate is then centrifuged at 45,000 G for 10 minutes. The supernatant is decanted and the membrane pellet re-suspended by Polytron in cold 50 mM Tris.HCl containing 2 mM MgCl2 (pH to 7.4 at 4 degrees C.) and centrifuged again. The final pellet is re-suspended in 50 mM Tris HCl containing 2 mM MgCl2 (pH to 7.4 at 25 degrees C.) at a concentration of 12 mg/mL. Dilutions of compounds are made in 10% DMSO/50 mM Tris buffer (pH 7.4) (at 10×final concentration, so that the final DMSO concentration is 1%). Incubations are initiated by the addition of membranes (200 microliters) to 96-well V-bottom polypropylene plates containing 25 microliters of drug dilutions and 25 microliters of radioligand (1 nM final concentration ^3H-N-methylhistamine). After a 1-hour incubation, assay samples are rapidly filtered through Whatman GF/B filters and rinsed with ice-cold 50 mM Tris buffer (pH 7.4) using a Skatron cell harvester. Radioactivity is quantified using a BetaPlate scintillation counter.

T1 sequence (Q9QYN8 whole entry): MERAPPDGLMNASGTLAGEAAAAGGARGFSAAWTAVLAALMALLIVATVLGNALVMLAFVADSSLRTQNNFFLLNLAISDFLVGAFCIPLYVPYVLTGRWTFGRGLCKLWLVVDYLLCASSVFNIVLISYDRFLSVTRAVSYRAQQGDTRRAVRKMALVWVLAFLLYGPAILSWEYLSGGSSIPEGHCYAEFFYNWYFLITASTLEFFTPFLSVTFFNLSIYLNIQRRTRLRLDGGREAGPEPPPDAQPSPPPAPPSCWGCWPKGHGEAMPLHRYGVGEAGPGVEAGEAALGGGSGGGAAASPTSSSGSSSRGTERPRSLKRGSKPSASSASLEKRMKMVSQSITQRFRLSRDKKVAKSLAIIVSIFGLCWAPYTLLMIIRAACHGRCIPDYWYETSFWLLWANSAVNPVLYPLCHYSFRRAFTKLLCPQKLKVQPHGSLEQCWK

Structure (SMILES)	melting point	Ki [1] [nM]
Cl.c1cc2c(cc1OCCCNC1CC3CCC1C3)CCC(CN1CCCC1)C2 (stereo not drawn)	265.4 to 266.3 °C	
Cl.c1cc2c(cc1OCCCN1CCC3(CCCCC3)CC1)CCC(CN1CCCC1)C2 (stereo not drawn)	287.6 to 290.2 °C	
CN(C)CCOc1ccc2c(c1)CCC(CN1CCCC1)C2.Cl (racemic)	131.6 to 132.8 °C	
Cl.NC(=O)C1CCN(CCCOc2ccc3c(c2)CCC(CN2CCCC2)C3)CC1 (racemic)	211 to 213 °C	
CN(C)CCCOc1ccc2c(c1)CCC(CN1CCCC1)C2.Cl (racemic) [1]	187.7 to 188.7 °C	
c1cc2c(cc1OCCCN1CCCCC1)CCC(CN1CCCC1)C2 (racemic) [3 (±), (±)-1-[3-(6-Pyrrolidin-1-ylmethyl-5,6,7,8-tetrahydro-naphthalen-2-yloxy)-propyl]-piperidine]	180 to 181.4 °C	8.4
Cl.c1cc2c(cc1OCCCN1CCOCC1)CCC(CN1CCCC1)C2 (racemic) [4]	259.9 to 261.4 °C	
Cl.c1cc2c(cc1OCCCN1CCCC1)CCC(CN1CCCC1)C2 (racemic) [6 (±), (±)-1-[3-(6-Pyrrolidin-1-ylmethyl-5,6,7,8-tetrahydro-naphthalen-2-yloxy)-propyl]-pyrrolidine hydrochloride]	149.4 to 150.5 °C	9
Cl.c1cc2c(cc1OCCCN1CCC(N3CCCCC3)CC1)CCC(CN1CCCC1)C2 (racemic) [7 (±), (±)-1′-[3-(6-Pyrrolidin-1-ylmethyl-5,6,7,8-tetrahydro-naphthalen-2-yloxy)-propyl]-[1,4′]bi-piperidinyl hydrochloride]	284.8 °C (dec.)	3
NC(=O)C1CCCN(CCCOc2ccc3c(c2)CCC(CN2CCCC2)C3)C1 (racemic) [Example 9, (±)-1-[3-(6-Pyrrolidin-1-ylmethyl-5,6,7,8-tetrahydro-naphthalen-2-yloxy)-propyl]-piperidine-3-carboxylic acid amide]	102 to 103.2 °C	
CC1CCCN(CCCOc2ccc3c(c2)CCC(CN2CCCC2)C3)C1 (single isomer, unassigned; (+)) [40 (+), (+)-3-Methyl-1-[3-(6-pyrrolidin-1-ylmethyl-5,6,7,8-tetrahydro-naphthalen-2-yloxy)-propyl]-piperidine]		8.4
Fc1ccc(C2CCCN2CCCOc2ccc3c(c2)CCC(CN2CCCC2)C3)cc1 (single isomer, unassigned; (+)) [71 (+), (+)-2-(4-Fluorophenyl)-1-[3-(6-pyrrolidin-1-ylmethyl-5,6,7-8-tetrahydro-naphthalen-2-yloxy)-propyl]-pyrrolidine]		9.6
Cl.c1cc2c(cc1OCCCN1CCCCC1)CCC(CN1CCCC1)C2 (single isomer, unassigned; (-)) [10 (−), (−)-1-[3-(6-Pyrrolidin-1-ylmethyl-5,6,7,8-tetrahydro-naphthalen-2-yloxy)-propyl]-piperidine hydrochloride]	286.6 to 286.8 °C	1.1
CC1(C)CCCN(CCCOc2ccc3c(c2)CCC(CN2CCCC2)C3)C1.Cl (single isomer, unassigned; (-)) [15 (−), (−)-3,3-Dimethyl-1-[3-(6-pyrrolidin-1-ylmethyl-5,6,7,8-tetrahydro-naphthalen-2-yloxy)-propyl]-piperidine hydrochloride]	202 to 204 °C	5
Cl.c1cc2c(cc1OCCCNC1CCC3(CCCCC3)CC1)CCC(CN1CCCC1)C2 (single isomer, unassigned; (-)) [16 (−), (−)-[3-(6-Pyrrolidin-1-ylmethyl-5,6,7,8-tetrahydro-naphthalen-2-yloxy)-propyl]-spiro[5.5]undec-3-ylamine hydrochloride]	291.5 to 292.9 °C	7.2
Clc1ccc(CNCCCOc2ccc3c(c2)CCC(CN2CCCC2)C3)cc1 (single isomer, unassigned; (-)) [24 (−), (−)-(4-Chlorobenzyl)-[3-(6-pyrrolidin-1-ylmethyl-5,6,7,8-tetrahydro-naphthalen-2-yloxy)-propyl]-amine]		0.84
Clc1ccc(CNCCCOc2ccc3c(c2)CCC(CN2CCCC2)C3)cc1Cl (single isomer, unassigned; (-)) [27 (−), (−)-(3,4-Dichlorobenzyl)-[3-(6-pyrrolidin-1-ylmethyl-5,6,7,8-tetrahydro-naphthalen-2-yloxy)-propyl]-amine]		1.58
c1ccc(CNCCCOc2ccc3c(c2)CCC(CN2CCCC2)C3)cc1 (single isomer, unassigned; (-)) [28 (−), (−)-Benzyl-[3-(6-pyrrolidin-1-ylmethyl-5,6,7,8-tetrahydro-naphthalen-2-yloxy)-propyl]-amine]		4.7

Structure (SMILES)	melting point	Ki [1] [nM]
Fc1ccc(CNCCCOc2ccc3c(c2)CCC(CN2CCCC2)C3)cc1 (single isomer, unassigned; (-)) [32 (−), (−)-(4-Fluorobenzyl)-[3-(6-pyrrolidin-1-ylmethyl-5,6,7,8-tetrahydro-naphthalen-2-yloxy)-propyl]-amine]		1.25
CC1CCCN(CCCOc2ccc3c(c2)CCC(CN2CCCC2)C3)C1 (single isomer, unassigned; (-)) [40 (−), (−)-3-Methyl-1-[3-(6-pyrrolidin-1-ylmethyl-5,6,7,8-tetrahydro-naphthalen-2-yloxy)-propyl]-piperidine]		3.54
CC1CCCCN1CCCOc1ccc2c(c1)CCC(CN1CCCC1)C2 (single isomer, unassigned; (-)) [41 (−), (−)-2-Methyl-1-[3-(6-pyrrolidin-1-ylmethyl-5,6,7,8-tetrahydro-naphthalen-2-yloxy)-propyl]-piperidine]		5.89
CC1CCN(CCCOc2ccc3c(c2)CCC(CN2CCCC2)C3)CC1 (single isomer, unassigned; (-)) [42 (−), (−)-4-Methyl-1-[3-(6-pyrrolidin-1-ylmethyl-5,6,7,8-tetrahydro-naphthalen-2-yloxy)-propyl]-piperidine]		4.32
CC(CN1CCOCC1)NCCCOc1ccc2c(c1)CCC(CN1CCCC1)C2 (single isomer, unassigned; (-)) [51 (−), (−)-(1-Methyl-2-morpholin-4-ylethyl)-[3-(6-pyrrolidin-1-ylmethyl-5,6,7,8-tetrahydro-naphthalen-2-yloxy)-propyl]-amine]		6.2
CN(CCCOc1ccc2c(c1)CCC(CN1CCCC1)C2)Cc1ccco1 (single isomer, unassigned; (-)) [55 (−), (−)-Furan-2-ylmethyl-[3-(6-pyrrolidin-1-ylmethyl-5,6,7,8-tetrahydro-naphthalen-2-yloxy)-propyl]-methylamine]		4.5
c1cc2c(cc1OCCCNC1CCCCC1)CCC(CN1CCCC1)C2 (single isomer, unassigned; (-)) [64 (−), (−)-[3-(6-pyrrolidin-1-ylmethyl-5,6,7,8-tetrahydro-naphthalen-2-yloxy)-propyl]-cyclohexyl-amine]		4.36
c1cc2c(cc1OCCCN1CC3CCCC1C3)CCC(CN1CCCC1)C2 (single isomer, unassigned; (-)) [65 (−), (−)-6-[3-(6-Pyrrolidin-1-ylmethyl-5,6,7,8-tetrahydro-naphthalen-2-yloxy)-propyl]-6-azabicyclo-[3.2.1]octane]		2.11
Fc1ccc(CNCCCOc2ccc3c(c2)CCC(CN2CCCC2)C3)cc1F (single isomer, unassigned; (-)) [77 (−), (−)-(3,4-Difluorobenzyl)-[3-(6-pyrrolidin-1-ylmethyl-5,6,7,8-tetrahydro-naphthalen-2-yloxy)-propyl]-amine]		1.95
Clc1ccc(CNCCCOc2ccc3c(c2)CCC(CN2CCCC2)C3)c(Cl)c1 (single isomer, unassigned; (-)) [79 (−), (−)-(2,4-Dichlorobenzyl)-[3-(6-pyrrolidin-1-ylmethyl-5,6,7,8-tetrahydro-naphthalen-2-yloxy)-propyl]-amine]		1.9
CC1CC(C)CN(CCCOc2ccc3c(c2)CCC(CN2CCCC2)C3)C1 (single isomer, unassigned; (-)) [81 (−), (−)-3,5-Dimethyl-1-[3-(6-pyrrolidin-1-ylmethyl-5,6,7,8-tetrahydro-naphthalen-2-yloxy)-propyl]-piperidine]		9.14
Cl.Cl.c1cc2c(cc1OCCN1CCCCC1)CCC(CN1CCCC1)C2 (single isomer, unassigned; (-)) [92 (−), (−)-1-[2-(6-Pyrrolidin-1-ylmethyl-5,6,7,8-tetrahydro-naphthalen-2-yloxy)-ethyl]-piperidine dihydrochloride]	265.5 to 266.8 °C	11.3
Cl.c1cc2c(cc1OCCCN1CCOCC1)CCC(CN1CCCC1)C2 (stereo not drawn) [5]	255.4 to 256.4 °C	
Cl.c1cc2c(cc1OCCCN1CCOCC1)CCC(CN1CCCC1)C2 (stereo not drawn) [11]	281.8 to 282.7 °C	
Cl.c1cc2c(cc1OCCCN1CCCCC1)CCC(CN1CCCC1)C2 (stereo not drawn) [12]	256.6 to 258.4 °C	
CN(C)CCCOc1ccc2c(c1)CCC(CN1CCCC1)C2.Cl (stereo not drawn) [13]	230.6 to 232.8 °C	
Cl.c1cc2c(cc1OCCCN1CCOCC1)CCC(CN1CCCC1)C2 (stereo not drawn) [14]	249.6 to 250.4 °C	
